This passage reports MIC results from patent US5744478A, “Thiazolo [3,2-a] quinoline and thiazolo [3,2-a] naphthyridine derivatives” (Bayer Aktiengesellschaft, priority 1994, dated 1998).

Holding throughout (experiment): MIC by serial dilution on Iso-Sensitest Agar
What all share (assay type): cell-based

Test [1] deals with Staphylococcus aureus ICB 25768. The following applies: ICB25768, 37° C., about 20 hours, about 10^4 colony-forming particles. The protocol: (§1) The minimum inhibitory concentrations (MIC) of the compounds according to the invention were determined by serial dilution methods on Iso-Sensitest Agar (Oxoid). For each test substance, a number of agar plates were prepared which, in each case at double the dilution, contained decreasing concentrations of the active compound. The agar plates were inoculated using a multipoint inoculator (Denley). For inoculation, overnight cultures of the pathogens were used which had previously been diluted such that each inoculation point contained about 10^4 colony-forming particles. The inoculated agar plates were incubated at 37° C., and the bacterial growth was read off after about 20 hours. The MIC value (μg/ml) indicates the lowest active compound concentration at which no growth was to be observed using the naked eye.

Test [2] concerns Staphylococcus aureus ATCC29213. Conditions: 37° C., about 20 hours, about 10^4 colony-forming particles. How it is done:
as §1

The next test relates to Providencia sp. 12012. The following applies: 37° C., about 20 hours, about 10^4 colony-forming particles. How it is done: as §1
For a further test, the system named is E. coli Neumann. The following applies: Escherichia coli, 37° C., about 20 hours, about 10^4 colony-forming particles. How it is done:
as §1

A further test concerns Micrococcus luteus 9341. The following applies: 37° C., about 20 hours, about 10^4 colony-forming particles. How it is done:
as §1

The test system of a further test is E. coli ATCC 25922. Conditions: Escherichia coli, ATCC25922, 37° C., about 20 hours, about 10^4 colony-forming particles. The protocol: as §1
Test [3] relates to Staphylococcus aureus 133. Conditions: 37° C., about 20 hours, about 10^4 colony-forming particles. How it is done: as §1
Test [4] has as its system Enterococcus faecalis 27101. Conditions: 37° C., about 20 hours, about 10^4 colony-forming particles. How it is done:
as §1

Test [5] deals with Staphylococcus aureus ICB 25701. The following applies: ICB25701, 37° C., about 20 hours, about 10^4 colony-forming particles. The protocol: as §1
For test [6], the system named is Klebsiella pneumonia 8085. Conditions: Klebsiella pneumoniae, 37° C., about 20 hours, about 10^4 colony-forming particles. The protocol: as §1
A further test concerns Klebsiella pneumonia 63. The following applies: Klebsiella pneumoniae, 37° C., about 20 hours, about 10^4 colony-forming particles. The protocol: as §1
Test [7] deals with Enterococcus faecalis 9790. Conditions: 37° C., about 20 hours, about 10^4 colony-forming particles. The protocol:
as §1

What is called MIC is the lowest concentration that inhibits growth of the organism. Higher therefore signals a need for much substance.

Values after ≈ are worked out from the molar mass of the structure shown.

Turning to `NC1C=CCC2CN(c3c(F)cc4c(=O)c(C(=O)O)c5scc6n5c4c3OC6)CC12` (stereo not drawn) [Example 4, 8-(2-Amino-8-azabicyclo[4.3.0]non-3-en-8-yl)-7-fluoro-5-oxo-9,1-(epoxymethano)-5H-thiazolo[3,2-a]quinoline-4-carboxylic acid], the MIC in [1] was 0.25 µg/mL (≈ 0.585 µM); in test [2], at most 0.015 µg/mL; against Providencia sp. 12012, at most 0.015 µg/mL; in the test with E. coli Neumann, at most 0.015 µg/mL; against Micrococcus luteus 9341, at most 0.015 µg/mL; against E. coli ATCC 25922 it was at most 0.015 µg/mL. The MIC in test [3] is at most 0.015 µg/mL; in [4], at most 0.015 µg/mL; in test [5] it was 0.06 µg/mL (≈ 0.14 µM); in test [6] it was at most 0.015 µg/mL; against Klebsiella pneumonia 63, at most 0.015 µg/mL; in test [7], at most 0.015 µg/mL.
Consider `O=C(O)c1c(=O)c2cc(F)c(N3C[C@@H]4CCCN[C@@H]4C3)c3c2n2c(csc12)CO3` [Example 2], for which the MIC is 32 µg/mL (≈ 77 µM) in test [1]; at most 0.015 µg/mL in test [2]; at most 0.015 µg/mL with Providencia sp. 12012; at most 0.015 µg/mL against E. coli Neumann; 0.125 µg/mL (≈ 0.301 µM) with Micrococcus luteus 9341; at most 0.015 µg/mL against E. coli ATCC 25922. Moreover, the MIC was at most 0.015 µg/mL in test [3]; 0.03 µg/mL (≈ 0.0722 µM) in test [4]; 0.5 µg/mL (≈ 1.2 µM) in test [5]; at most 0.015 µg/mL in test [6]; at most 0.015 µg/mL in the test on Klebsiella pneumonia 63; 0.03 µg/mL (≈ 0.0722 µM) in test [7].
For the compound `CC1C=CC(N)C2CN(c3c(F)cc4c(=O)c(C(=O)O)c5scc6n5c4c3OC6)CC12` (stereo not drawn) [Example 5, 8-(2-Amino-5-methyl-8-azabicyclo[4.3.0]non-3-en-8-yl)-7-fluoro-5-oxo-9,1-(epoxymethano)-5H-thiazolo[3,2-a]quinoline-4-carboxylic acid], the MIC in test [1] is 0.5 µg/mL (≈ 1.13 µM); in [2], at most 0.015 µg/mL; in the test with Providencia sp. 12012 it was at most 0.015 µg/mL; against E. coli Neumann, at most 0.015 µg/mL; with Micrococcus luteus 9341, at most 0.015 µg/mL; in the test on E. coli ATCC 25922, at most 0.015 µg/mL. Also, the MIC in test [3] was at most 0.015 µg/mL; in test [4], at most 0.015 µg/mL; in test [5], 0.06 µg/mL (≈ 0.136 µM); in test [6], at most 0.015 µg/mL; with Klebsiella pneumonia 63 it was at most 0.015 µg/mL; in test [7], at most 0.015 µg/mL.
On to `CNC1C=CCC2CN(c3c(F)cc4c(=O)c(C(=O)O)c5scc6n5c4c3OC6)CC21` (stereo not drawn) [Example 3, 7-Fluoro-8-(2-methylamino-8-azabicyclo[4.3.0]non-3-en-8-yl)-5-oxo-9,1-(epoxymethano)-5H-thiazolo[3,2-a]quinoline-4-carboxylic acid], for which the minimal inhibitory concentration (MIC) in [1] is 0.5 µg/mL (≈ 1.13 µM); in [2], at most 0.015 µg/mL; in the test with Providencia sp. 12012, at most 0.015 µg/mL; in the test on E. coli Neumann it was at most 0.015 µg/mL; against Micrococcus luteus 9341, at most 0.015 µg/mL; in the test with E. coli ATCC 25922, at most 0.015 µg/mL. The MIC is at most 0.015 µg/mL in [3]; at most 0.015 µg/mL in test [4]; 0.06 µg/mL (≈ 0.136 µM) in test [5]; at most 0.015 µg/mL in [6]; at most 0.015 µg/mL against Klebsiella pneumonia 63; at most 0.015 µg/mL in test [7].
